# Experimental data taken from ChEMBL document CHEMBL4689842, “EUbOPEN Chemogenomics Library wave 1” (2021).
# Columns and labels:
# Format in all cases: toxicity, cell-based
# [1] = system: HEK-293T; assay: Incucyte cell viability with HEK293T; settings: human, 10 µM, compound concentration 10 uM
# [2] = system: Fibroblast; assay: Incucyte cell viability with human fibroblast; settings: 10 µM, compound concentration 10 uM
# [3] = system: U2OS; assay: Incucyte cell viability with U2OS; settings: human, 10 µM, compound concentration 10 uM
# [4] = 6 h, replicate number 1, timepoint 6 hours
# [5] = 12 h, replicate number 1, timepoint 12 hours
# [6] = 18 h, replicate number 1, timepoint 18 hours
# [7] = 24 h, replicate number 1, timepoint 24 hours
# [8] = 0 h, replicate number 1, timepoint 0 hours
# [9] = 6 h, replicate number 2, timepoint 6 hours
# [10] = 12 h, replicate number 2, timepoint 12 hours
# [11] = 24 h, replicate number 2, timepoint 24 hours
# [12] = 0 h, replicate number 2, timepoint 0 hours
# [13] = 18 h, replicate number 2, timepoint 18 hours
# Further: filed as whole numbers so only -1 and 0 and 1 occur.
SMILES,"Growth Rate [1, 4]","Growth Rate [1, 5]","Growth Rate [1, 6]","Growth Rate [1, 7]","Growth Rate [2, 8]","Growth Rate [2, 9]","Growth Rate [2, 5]","Growth Rate [2, 10]","Growth Rate [2, 6]","Growth Rate [2, 7]","Growth Rate [3, 4]","Growth Rate [3, 5]","Growth Rate [3, 6]","Growth Rate [3, 7]","Growth Rate [1, 8]","Growth Rate [1, 10]","Growth Rate [2, 4]","Growth Rate [3, 8]","Growth Rate [1, 12]","Growth Rate [2, 13]",further results
CN(c1ccnc(CNc2nc(Nc3ccc4c(c3)CC(=O)N4)ncc2C(F)(F)F)n1)S(C)(=O)=O [PF-00911705],0,0,0,0,0,0,1,0,0,1,0,0,0,0,,,,,,,"Growth Rate [2, 11]: 0; Growth Rate [3, 12]: 0"
O=C(NCCCN1CCOC1=O)c1cnc(NCc2cc(Br)ccc2Br)nc1NC1CCCC1,1,,1,1,,,0,,0,0,1,1,0,1,0,1,0,0,,,"Growth Rate [1, 11]: 0"
CCCCN1CCC(COC(=O)c2cc(Cl)c(N)c3c2OCCO3)CC1.Cl,0,0,0,0,0,0,,0,1,1,1,1,1,1,1,1,,1,0,0,"Growth Rate [1, 9]: 1; Growth Rate [1, 13]: 1; Growth Rate [2, 11]: 0; Growth Rate [3, 9]: 0; Growth Rate [3, 10]: 0; Growth Rate [3, 13]: 0; Growth Rate [3, 11]: 0"
C[C@H](c1ccc(F)cc1)N(Cc1ccc(Cl)c(C(=O)O)c1)C(=O)c1cnc2ccccc2c1 [PF-05257137],0,0,0,1,0,0,,1,,1,,1,1,1,1,,,0,0,1,"Growth Rate [1, 11]: 0"
CNC(=NCCSCc1csc(N=C(N)N)n1)NC#N [TIOTIDINE],0,1,0,0,0,0,0,,0,0,,1,0,1,1,0,1,0,0,,"Growth Rate [3, 9]: 0; Growth Rate [3, 10]: 0; Growth Rate [3, 13]: 1"
CN([C@@H]1CCc2c(CC(=O)O)c3ccccc3n2C1)S(=O)(=O)c1ccc(F)cc1 [MK-7246],0,0,0,0,0,,0,1,0,0,,1,1,0,0,,0,0,,1,"Growth Rate [1, 9]: 1; Growth Rate [1, 13]: 1; Growth Rate [1, 11]: 1; Growth Rate [3, 9]: 0; Growth Rate [3, 11]: 1"
O=C(NCc1ccccc1)c1ccc(S(=O)(=O)NCc2ccccc2)cc1,0,1,1,0,0,1,0,1,1,0,0,1,0,1,0,,0,,,0,"Growth Rate [1, 9]: 1; Growth Rate [1, 11]: 1; Growth Rate [3, 12]: 1; Growth Rate [3, 11]: 0"
Cn1cnc2c(F)c(Nc3ccc(Br)cc3Cl)c(C(=O)NOCCO)cc21 [SELUMETINIB],,,,1,0,,,,,1,0,0,0,0,0,1,,1,1,,
Cc1cccc(-c2cnc3occ(-c4ccc(C(=O)O)c(C5CCCC5)c4)c3c2)c1,,,1,1,,,0,,0,0,0,1,0,1,1,,0,0,0,,"Growth Rate [2, 12]: 1; Growth Rate [3, 10]: 0; Growth Rate [3, 13]: 1"
CCC(=O)N1CCOc2c(cc(-c3ccc(OC)c(OC)c3)cc2OC[C@H]2CCCN(C)C2)C1,0,0,0,0,0,,1,0,1,1,0,1,1,1,,,0,0,1,0,"Growth Rate [1, 13]: 1; Growth Rate [2, 11]: 0"
